Measured values taken from patent publication US20030134859A1 (SANKYO COMPANY, LIMITED, priority 2000, published 2003).
Where two headings read alike, the source gives them in different places.

Test system: leptin production
Assay: Enhancing activity for leptin production in adipocytes (ELISA)
Format: cell-based, rat
Conditions: leptin concentration as % of control group
Summary of the method: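 Leptin release, quantified by rat leptin ELISA, expressed as percent of 0.1% DMSO control after 24 h at 37 °C. Cells were floating adipocytes isolated by collagenase digestion of epididymal fat from male 6-week Wistar Imamichi rats; compound tested at 1 nM–1 µM final.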

[1] = Rattus norvegicus, Adipocyte, 24 h, 1 μM, read-out: Facilitating activity to produce leptin
[2] = Rattus norvegicus, Adipocyte, 24 h, 100 nm, read-out: Facilitating activity to produce leptin
[3] = Rattus norvegicus, Adipocyte, 24 h, 10 nm, read-out: Facilitating activity to produce leptin
[4] = Rattus norvegicus, Adipocyte, 10 nm, 24 hr, read-out: Facilitating activity to produce leptin
[5] = Rattus norvegicus, Adipocyte, 100 nm, 24 hr, read-out: Facilitating activity to produce leptin

## CCCCN(CC)c1ccc(-c2ccc(NC(=O)c3cc([N+](=O)[O-])ccc3Cl)cc2)cc1 [Example 209, N-[4-[4-(N-Butyl-N-ethylamino)phenyl]phenyl]-(2-chloro-5-nitrophenyl)carboxamide]
[1]
  activity at 1 µM: 117%
[2]
  activity at 0.1 µM: 111%

## CCCN(CC)c1ccc(-c2ccc(NC(=O)c3cc([N+](=O)[O-])ccc3Cl)cc2)cc1 [Example 212, N-[4-[4-(N-Ethyl-N-propylamino)phenyl]phenyl]-(2-chloro-5-nitrophenyl)carboxamide]
[1]
  activity at 1 µM: 112%

## CCCCCN(CCCCC)c1ccc(-c2ccc(NC(=O)c3cc([N+](=O)[O-])ccc3Cl)cc2)cc1 [Example 214, N-[4-[4-(N,N-Dipentylamino)phenyl]phenyl]-(2-chloro-5-nitrophenyl)carboxamide]
[1]
  activity at 1 µM: 125%
[3]
  activity at 0.01 µM: 112%
[2]
  activity at 0.1 µM: 125%

## CCCCCN(CC)c1ccc(-c2ccc(NC(=O)c3cc([N+](=O)[O-])ccc3Cl)cc2)cc1 [Example 216, N-[4-[4-(N-Ethyl-N-pentylamino)phenyl]phenyl]-(2-chloro-5-nitrophenyl)carboxamide]
[1]
  activity at 1 µM: 117%
[3]
  activity at 0.01 µM: 113%
[2]
  activity at 0.1 µM: 112%

## CCN(CC)c1ccc(-c2ccc(NC(=O)c3cc([N+](=O)[O-])ccc3Cl)cc2)cc1 [Example 217, N-[4-[4-(N,N-Diethylamino)phenyl]phenyl]-(2-chloro-5-nitrophenyl)carboxamide]
[1]
  activity at 1 µM: 121%
[3]
  activity at 0.01 µM: 116%
[2]
  activity at 0.1 µM: 117%

## O=C(Nc1ccc(-c2ccc(NC(=S)Nc3cccc(F)c3)cc2)cc1)c1cc([N+](=O)[O-])ccc1Cl [Example 245, N-[4-[4-[(3-Fluorophenyl)aminothiocarbonylamino]phenyl]phenyl]-(2-chloro-5-nitrophenyl)carboxamide]
[1]
  activity at 1 µM: 111%
[3]
  activity at 0.01 µM: 111%

## O=C(Nc1nc(-c2ccc([N+](=O)[O-])cc2)cs1)c1cc([N+](=O)[O-])ccc1Cl [Example 246, N-[4-(4-Nitrophenyl)thiazol-2-yl]-(2-chloro-5-nitrophenyl)carboxamide]
[4]
  activity at 0.01 µM: 111%
[5]
  activity at 0.1 µM: 113%

## CCOC(=O)NC(=S)Nc1ccc(-c2ccc(NC(=O)c3cc([N+](=O)[O-])ccc3Cl)cc2)cc1 [Example 251, N-[4-[4-(Ethoxycarbonylaminothiocarbonylamino)phenyl]phenyl]-(2-chloro-5-nitrophenyl)carboxamide]
[3]
  activity at 0.01 µM: 111%
[2]
  activity at 0.1 µM: 107%

## O=C(Nc1ccc(-c2ccc(NC(=S)Nc3ccccc3)cc2)cc1)c1cc([N+](=O)[O-])ccc1Cl [Example 252, N-[4-[4-(Phenylaminothiocarbonylamino)phenyl]phenyl]-(2-chloro-5-nitrophenyl)carboxamide]
[1]
  activity at 1 µM: 108%
[3]
  activity at 0.01 µM: 110%
[2]
  activity at 0.1 µM: 113%

## O=C(Nc1ccc(-c2ccc(NC(=O)c3cc([N+](=O)[O-])ccc3Cl)cc2)cc1)Nc1ccccc1[N+](=O)[O-] [Example 254, N-[4-[4-(2-Nitrophenylaminocarbonylamino)phenyl]phenyl]-(2-chloro-5-nitrophenyl)carboxamide]
Rattus norvegicus, Adipocyte, 1 μM, 24 hr, read-out: Facilitating activity to produce leptin
  activity at 1 µM: 109%
[4]
  activity at 0.01 µM: 111%
[5]
  activity at 0.1 µM: 106%

## O=C(NC(=S)NCCc1ccc(NC(=O)c2cc([N+](=O)[O-])ccc2Cl)cc1)c1ccccc1 [Example 271, N-[4-(2-Phenylcarbonylaminothiocarbonylaminoethyl)phenyl]-(2-chloro-5-nitrophenyl)carboxamide]
[3]
  activity at 0.01 µM: 121%
[2]
  activity at 0.1 µM: 115%

## CCS(=O)(=O)N(c1ccc(-c2ccc(NC(=O)c3cc([N+](=O)[O-])ccc3Cl)cc2)cc1)S(=O)(=O)CC [Example 276, N-[4-[4-(N,N-Diethanesulfonylamino)phenyl]phenyl]-(2-chloro-5-nitrophenyl)carboxamide]
[1]
  activity at 1 µM: 117%
Rattus norvegicus, Adipocyte, 24 h, 1 nm, read-out: Facilitating activity to produce leptin
  activity at 0.001 µM: 108%
[3]
  activity at 0.01 µM: 112%
[2]
  activity at 0.1 µM: 123%

## N-[3-(Pyrrolidinylsulfonyl)phenyl]-(2-chloro-5-nitrophenyl)carboxamide [Example 154]
1 μM, 24 hr
  Facilitating activity to produce leptin: 116.9%
100 nm, 24 hr
  Facilitating activity to produce leptin: 109.5%

## N-[4-(4-Methylbenzoylamino)phenyl]phenyl]-(2-chloro-5-nitrophenyl)carboxamide [Example 122]
1 μM, 24 hr
  Facilitating activity to produce leptin: 128.5%
100 nm, 24 hr
  Facilitating activity to produce leptin: 128.5%

## N-[4-(Benzenesulfonylaminophenyl)phenyl]-(2-chloro-5-nitrophenyl)carboxamide [Example 128]
1 μM, 24 hr
  Facilitating activity to produce leptin: 137.3%
10 nm, 24 hr
  Facilitating activity to produce leptin: 108.8%
100 nm, 24 hr
  Facilitating activity to produce leptin: 130.8%

## N-[4-[4-(Pyrrolidin-1-ylamino)phenyl]phenyl]-(2-chloro-5-nitrophenyl)carboxamide [Example 171]
1 μM, 24 hr
  Facilitating activity to produce leptin: 126.7%
1 nm, 24 hr
  Facilitating activity to produce leptin: 113.2%
10 nm, 24 hr
  Facilitating activity to produce leptin: 115.4%
100 nm, 24 hr
  Facilitating activity to produce leptin: 128.1%
